These results are taken from patent US20200261409A1, “METHODS FOR PAIN TREATMENT USING RESINIFERATOXIN” (priority 2015, published 2020).

“Also recorded” adds a separate entry of the source.

Experiment [1] deals with swine with gait asymmetry due to chronic knee pain induced by unilateral ACLT. The experiment in a line: Blinded behavioral assessment of the limp in the ACLT knee osteoarthritis model. The format is in vivo, Yucatan miniature swine. The procedure:
(§1) The study was approved by the Institutional Animal Care and Use Committee of the Mayo Clinic. Female Yucatan miniature swine (Exemplar Genetics, Sioux Center, Iowa, USA) weighing 25-45 kg at the time of RTX administration were used. For both procedures (i.e., ACLT and PG-ED injection), the pigs were anesthetized by intramuscular injection of Telazol (tiletamine and zolazepam, 5 mg/kg; Fort Dodge Animal Health, Fort Dodge, Iowa, USA), xylazine (2 mg/kg; Akorn, Decatur, Ill., USA), and glycopyrrolate (0.01 mg/kg; Baxter Healthcare, Deerfield, Ill., USA), followed by endotracheal intubation and anesthesia maintenance with 1.5%-2% isoflurane (Piramal Healthcare, Bethlehem, Pa., USA). For antibiotic prophylaxis, the animals were given a single dose of intramuscular ceftiofur (5 mg/kg; Pfizer, New York, N.Y., USA). For postoperative analgesia, the animals received a single dose of slow release buprenorphine (0.18 mg/kg; Wildlife Pharmaceuticals, Windsor, Colo., USA) intramuscularly and then oral carprofen (3 mg/kg; Pfizer Animal Health, New York, N.Y., USA) as needed for the first three postoperative days. For CTF guided PG-ED injection of RTX, a clinical CT scanner (Definition DS, Siemens Healthcare) with interventional CTF hardware and software packages was used. A full CT scan of the lumbosacral 13 spine was first performed to visualize the spinal anatomy and to identify the optimal access routes to the targeted PG-ED segments. The CT scanner acquisition settings were the same as reported previously (J. Pleticha, et al., Pig lumbar spine anatomy and imaging-guided lateral lumbar puncture: A new large animal model for intrathecal drug delivery, J. Neurosci. Methods 216, 10-15 (2013)). Next, a 22 G, 6″ spinal needle with Quincke tip (Kimberly-Clark, Roswell, Ga., USA) was advanced to the PG-ED space following the predetermined trajectory. […]

In experiment [2] the test system is sP+ axons in the dorsal horn of the spinal cord. The experiment can be described thus: Substance P (sP) immunohistochemistry of the spinal cord after PG-ED injection. The format is in vivo, Yucatan miniature swine. The procedure: as §1
Experiment [3] has as its system other neuronal populations in the spinal cord (NeuN; primary motor neurons). The experiment in a line: Neuronal nuclei (NeuN) staining of the spinal cord after PG-ED injection. The format is in vivo, Yucatan miniature swine. The settings on record: PG-ED injection of RTX; FIGS. 3A-3D. How it is done: as §1, with “used.” for “used. A full CT scan of the lumbosacral 13 spine was first performed to visualize the spinal anatomy and to identify the optimal access routes to the targeted PG-ED segments. The CT scanner acquisition settings were the same as reported previously (J. Pleticha, et al., Pig lumbar spine anatomy and imaging-guided lateral lumbar puncture: A new large animal model for intrathecal drug delivery, J. Neurosci. Methods 216, 10-15 (2013)). Next, a 22 G, 6″ spinal needle with Quincke tip (Kimberly-Clark, Roswell, Ga., USA) was advanced to the PG-ED space following the predetermined trajectory.”

Experiment [4] has as its system rats. The following applies: subcutaneous and epidural administration; cited from earlier work.

As for `C=C(C)[C@]12C[C@@H](C)[C@@]34OC(Cc5ccccc5)(O[C@@H]1[C@@H]3C=C(COC(=O)Cc1ccc(O)c(OC)c1)C[C@]1(O)C(=O)C(C)=C[C@@H]41)O2` [RTX], in experiment [1] (ACLT pigs, n=3 RTX, PG-ED at ipsilateral L4, L5, 51, and S2, 3-5 weeks after administration, sign test p<0.02), the “limp / gait asymmetry, before vs after injection (blinded observers)” value is “improvements in symmetric weight bearing; also recorded: improvement of limp in all animals; also recorded: all animals receiving RTX improved; also recorded: significant reversal of gait asymmetry”. Further, the “clinically observed pain-related behavior (blinded observer)” value in experiment [1] (Example 7, pigs with knee osteoarthritis, n=8, PG-ED, p=0.03) is “improved”. For the same compound, the “sP+ axonal terminals in the dorsal horn at injected spinal levels, ACLT animals” value in experiment [2] (ACLT pigs, n=3 RTX, PG-ED at ipsilateral L4, L5, 51, and S2, FIGS. 4A-4F) is reported as “complete loss of sP+ fibers; also recorded: complete loss of the sP+ axonal terminals”. The “RTX dosed animals with low/none sP histology (blinded observer)” value in experiment [2] (Example 7, second group of pigs, PG-ED, doses of 1.5 μg and 5 μg, P=0.002) is on record as 6 of 6. Besides, the “sP+ axons/fibers in the dorsal horn of the spinal cord at the injected levels” value in experiment [2] (PG-ED injection, 5 μg RTX in 500 μl diluent per spinal level, blinded analysis, n=10 animals in study, sign test p<0.001) is reported as “no sP staining; also recorded: complete loss of sP+ axons”. The “NeuN staining (spinal cord neurons, motor neurons of the anterior horn)” value in experiment [3] is “unaffected; also recorded: not affected”. Besides, the “thermal analgesia, time without restoration of pain sensitivity” value in experiment [4] is listed as “over 7 days”.
With `CN1CC[C@]23c4c5ccc(O)c4O[C@H]2[C@@H](O)C=C[C@H]3[C@H]1C5` [morphine], in experiment [1] (ACLT pigs, intramuscular, unblinded observations), the weight-bearing asymmetry entry was “diminished weight-bearing asymmetry”.
